The values below come from patent US8518945B2, “Pyrrolopyrazine kinase inhibitors” (Hoffmann-La Roche Inc., priority 2010, dated 2013).

This experiment deals with T1, h-jak3(810-1124) (JAK3: Recombinant human kinase domain) (Homo sapiens, UniProt P52333).
T1 construct: jak3(810- 1124)-sf9-c; made in house; host or cells: Sf9
Put plainly: Determination of IC50 of Janus Kinase (JAK) inhibition: JAK3 radioactive end-point 33P-ATP kinase assay. The experiment is classed as biochemical. The settings on record: no additive; ATP 1.5 uM, peptide 50 uM, 20 minutes, room temperature; read-out: Ic50 h-jak3(810-1124)-sf9-c: no additive.

T1 sequence (P52333 810-1124): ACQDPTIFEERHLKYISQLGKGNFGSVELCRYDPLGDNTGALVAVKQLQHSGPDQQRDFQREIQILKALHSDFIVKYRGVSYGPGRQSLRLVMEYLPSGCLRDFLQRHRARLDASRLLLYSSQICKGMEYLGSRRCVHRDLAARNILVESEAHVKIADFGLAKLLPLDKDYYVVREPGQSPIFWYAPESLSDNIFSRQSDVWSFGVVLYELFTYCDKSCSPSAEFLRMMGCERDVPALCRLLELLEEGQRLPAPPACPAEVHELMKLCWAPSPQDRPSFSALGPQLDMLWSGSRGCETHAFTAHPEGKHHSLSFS

`CC(C)(C)[C@@H](NC(=O)c1c[nH]c2ncc(-c3cn(CC4CC4)cn3)nc12)C(=O)N1CCC(C#N)CC1` [Example I-119, 2-(1-Cyclopropylmethyl-1H-imidazol-4-yl)-5H-pyrrolo[2,3-b]pyrazine-7-carboxylic acid [(R)-1-(4-cyano-piperidine-1-carbonyl)-2,2-dimethyl-propyl]-amide]: the IC50 – broadly, the concentration that inhibits the measured activity by half – is 2.74 nM.

`CCn1cc(-c2cnc3[nH]cc(C(=O)N[C@@H](C(=O)N4CCC(C#N)CC4)C(C)(C)C)c3n2)cn1` [Example I-56, 2-(1-Ethyl-1H-pyrazol-4-yl)-5H-pyrrolo[2,3-b]pyrazine-7-carboxylic acid [(R)-1-(4-cyano-piperidine-1-carbonyl)-2,2-dimethyl-propyl]-amide]: the IC50 came to 0.77 nM.

In the case of `N#CC1CCN(C(=O)[C@@H](CC2CC2)NC(=O)c2c[nH]c3ncc(C4CC4)nc23)CC1` [Example I-116, 2-Cyclopropyl-5H-pyrrolo[2,3-b]pyrazine-7-carboxylic acid [(R)-2-(4-cyano-piperidin-1-yl)-1-cyclopropylmethyl-2-oxo-ethyl]-amide], the IC50 came to 2.73 nM.

For the compound `CC(C)(C)[C@@H](NC(=O)c1c[nH]c2ncc(C3CC3)nc12)C(=O)N1CCCC(C#N)C1` (stereo partly drawn) [Example I-29, 2-Cyclopropyl-5H-pyrrolo[2,3-b]pyrazine-7-carboxylic acid [(R)-1-(3-cyano-piperidine-1-carbonyl)-2,2-dimethyl-propyl]-amide], the IC50 turned out to be 13.6 nM.

In the case of `CC(=O)N1CCN(C(=O)[C@H](NC(=O)c2c[nH]c3ncc(C4CC4)nc23)C(C)(C)C)CC1` [Example I-57, 2-Cyclopropyl-5H-pyrrolo[2,3-b]pyrazine-7-carboxylic acid [(R)-1-(4-acetyl-piperazine-1-carbonyl)-2,2-dimethyl-propyl]-amide], the IC50 was at most 0.32 nM.

Regarding `O=C(N[C@@H](C(=O)N1CCS(=O)(=O)CC1)C1CC1)c1c[nH]c2ncc(C3CC3)nc12` [Example I-88, 2-Cyclopropyl-5H-pyrrolo[2,3-b]pyrazine-7-carboxylic acid [(R)-1-cyclopropyl-2-(1,1-dioxo-1λ^6-thiomorpholin-4-yl)-2-oxo-ethyl]-amide], the IC50 is 1.23 nM.

As for `C[C@@H](NC(=O)c1c[nH]c2ncc(C3CC3)nc12)C(=O)N1CCC(C#N)C1` (stereo partly drawn) [Example I-14, 2-Cyclopropyl-5H-pyrrolo[2,3-b]pyrazine-7-carboxylic acid [(R)-2-(3-cyano-pyrrolidin-1-yl)-1-methyl-2-oxo-ethyl]-amide], the IC50 was 8.02 nM.

`N#CC1CCN(C(=O)[C@@H](NC(=O)c2c[nH]c3ncc(C4CC4)nc23)C2(C(F)(F)F)CC2)CC1` [Example I-46, 2-Cyclopropyl-5H-pyrrolo[2,3-b]pyrazine-7-carboxylic acid [(S)-2-(4-cyano-piperidin-1-yl)-2-oxo-1-(1-trifluoromethyl-cyclopropyl)-ethyl]-amide]: the IC50 was found to be 4.29 nM.

`Cn1cc(-c2cnc3[nH]cc(C(=O)N[C@@H](C(=O)N4CC[C@H](C#N)C4)C4CC4)c3n2)cn1` [Example I-81, 2-(1-Methyl-1H-pyrazol-4-yl)-5H-pyrrolo[2,3-b]pyrazine-7-carboxylic acid [(R)-2-((S)-3-cyano-pyrrolidin-1-yl)-1-cyclopropyl-2-oxo-ethyl]-amide]: the IC50 is at most 0.32 nM.

Turning to `CC(=O)N1CCN(c2ccc(-c3cnc4[nH]cc(C(=O)N[C@@H](C(=O)N5CC(C#N)C5)C5CC5)c4n3)cc2)CC1` [Example I-161, 2-[4-(4-Acetyl-piperazin-1-yl)-phenyl]-5H-pyrrolo[2,3-b]pyrazine-7-carboxylic acid [(R)-2-(3-cyano-azetidin-1-yl)-1-cyclopropyl-2-oxo-ethyl]-amide], the concentration for half-maximal inhibition (IC50) was at most 0.32 nM.

For the compound `CC[C@H](C)[C@@H](NC(=O)c1c[nH]c2ncc(C3CC3)nc12)C(=O)N1CCC(C#N)CC1` [Example I-124, 2-Cyclopropyl-5H-pyrrolo[2,3-b]pyrazine-7-carboxylic acid [(1R,2S)-1-(4-cyano-piperidine-1-carbonyl)-2-methyl-butyl]-amide], the IC50 came to 1.37 nM.

Consider `N#CC1CCN(C(=O)[C@H](NC(=O)c2c[nH]c3ncc(-c4cn(C5CCCC5)nn4)nc23)C2CC2)CC1` [Example I-107, 2-(1-Cyclopentyl-1H-[1,2,3]triazol-4-yl)-5H-pyrrolo[2,3-b]pyrazine-7-carboxylic acid [(R)-2-(4-cyano-piperidin-1-yl)-1-cyclopropyl-2-oxo-ethyl]-amide], for which the IC50 worked out at 6.57 nM.

For `CCn1cc(-c2cnc3[nH]cc(C(=O)N[C@@H](C(=O)N4CCC(F)(C#N)C4)C(C)(C)C)c3n2)cn1` (stereo partly drawn) [Example I-36, 2-(1-Ethyl-1H-pyrazol-4-yl)-5H-pyrrolo[2,3-b]pyrazine-7-carboxylic acid [(R)-1-(3-cyano-3-fluoro-pyrrolidine-1-carbonyl)-2,2-dimethyl-propyl]-amide], the IC50 is at most 0.32 nM.

`Cn1cc(-c2cnc3[nH]cc(C(=O)N[C@@H](C(=O)N4CC[C@@H](C#N)C4)C4CC4)c3n2)cn1` [Example I-82, 2-(1-Methyl-1H-pyrazol-4-yl)-5H-pyrrolo[2,3-b]pyrazine-7-carboxylic acid [(R)-2-((R)-3-cyano-pyrrolidin-1-yl)-1-cyclopropyl-2-oxo-ethyl]-amide]: the IC50 is at most 0.32 nM.

For `O=C(N[C@@H](C(=O)N1CCCC1)C1CC1)c1c[nH]c2ncc(C3CC3)nc12` [Example I-5, 2-Cyclopropyl-5H-pyrrolo[2,3-b]pyrazine-7-carboxylic acid ((R)-1-cyclopropyl-2-oxo-2-pyrrolidin-1-yl-ethyl)-amide], the IC50 came out at 1.72 nM.

For `CC(C)[C@@H](NC(=O)c1c[nH]c2ncc(C3CC3)nc12)C(=O)N1CCCCC1` [Example I-7, 2-Cyclopropyl-5H-pyrrolo[2,3-b]pyrazine-7-carboxylic acid [(R)-2-methyl-1-(piperidine-1-carbonyl)-propyl]-amide], the half-maximal inhibitory concentration (IC50) is 6.56 nM.

As for `N#CC1CN(C(=O)[C@H](NC(=O)c2c[nH]c3ncc(-c4ccccc4)nc23)C2CC2)C1` [Example I-166, 2-Phenyl-5H-pyrrolo[2,3-b]pyrazine-7-carboxylic acid [(R)-2-(3-cyano-azetidin-1-yl)-1-cyclopropyl-2-oxo-ethyl]-amide], the IC50 is at most 0.32 nM.

`CCn1cc(-c2cnc3[nH]cc(C(=O)N[C@@H](C(=O)N4CCCC4)C4CC4)c3n2)cn1` [Example I-27, 2-(1-Ethyl-1H-pyrazol-4-yl)-5H-pyrrolo[2,3-b]pyrazine-7-carboxylic acid ((R)-1-cyclopropyl-2-oxo-2-pyrrolidin-1-yl-ethyl)-amide]: the IC50 is 1.94 nM.

Consider `C[C@@H](NC(=O)c1c[nH]c2ncc(-c3cccc(N4CCCC4)c3)nc12)C(=O)N1CC(C#N)C1` [Example I-109, 2-(3-Pyrrolidin-1-yl-phenyl)-5H-pyrrolo[2,3-b]pyrazine-7-carboxylic acid [(R)-2-(3-cyano-azetidin-1-yl)-1-methyl-2-oxo-ethyl]-amide], for which the IC50 came to 0.61 nM.

Regarding `CC1(O)CCN(C(=O)[C@H](NC(=O)c2c[nH]c3ncc(C4CC4)nc23)C(C)(C)C)CC1` [Example I-73, 2-Cyclopropyl-5H-pyrrolo[2,3-b]pyrazine-7-carboxylic acid [(R)-1-(4-hydroxy-4-methyl-piperidine-1-carbonyl)-2,2-dimethyl-propyl]-amide], the IC50 is 3.34 nM.

In the case of `CC(C)NC(=O)c1cccc(-c2cnc3[nH]cc(C(=O)N[C@H](C)C(=O)N4CC(C#N)C4)c3n2)c1` [Example I-111, 2-(3-Isopropylcarbamoyl-phenyl)-5H-pyrrolo[2,3-b]pyrazine-7-carboxylic acid [(R)-2-(3-cyano-azetidin-1-yl)-1-methyl-2-oxo-ethyl]-amide], the IC50 is 5.71 nM.

For `Cn1cc(-c2cnc3[nH]cc(C(=O)N[C@@H](C(=O)N4CC(C)(C#N)C4)C4CC4)c3n2)cn1` [Example I-142, 2-(1-Methyl-1H-pyrazol-4-yl)-5H-pyrrolo[2,3-b]pyrazine-7-carboxylic acid [(R)-2-(3-cyano-3-methyl-azetidin-1-yl)-1-cyclopropyl-2-oxo-ethyl]-amide], the IC50 worked out at 0.47 nM.

For the compound `CC(C)(C)[C@@H](NC(=O)c1c[nH]c2ncc(-c3cn[nH]c3)nc12)C(=O)N1CCC(C#N)CC1` [Example I-54, 2-(1H-Pyrazol-4-yl)-5H-pyrrolo[2,3-b]pyrazine-7-carboxylic acid [(R)-1-(4-cyano-piperidine-1-carbonyl)-2,2-dimethyl-propyl]-amide], the concentration for half-maximal inhibition (IC50) was determined as 14.9 nM.

Consider `N#CC1CN(C(=O)[C@H](NC(=O)c2c[nH]c3ncc(-c4cn(-c5cc(F)cc(F)c5F)cn4)nc23)C2CC2)C1` [Example I-133, 2-[1-(2,3,5-Trifluoro-phenyl)-1H-imidazol-4-yl]-5H-pyrrolo[2,3-b]pyrazine-7-carboxylic acid [(R)-2-(3-cyano-azetidin-1-yl)-1-cyclopropyl-2-oxo-ethyl]-amide], for which the IC50 turned out to be 1.67 nM.

Consider `CCn1cc(-c2cnc3[nH]cc(C(=O)N[C@H](CC(F)(F)F)C(=O)N4CCC(C#N)CC4)c3n2)cn1` [Example I-106, 2-(1-Ethyl-1H-pyrazol-4-yl)-5H-pyrrolo[2,3-b]pyrazine-7-carboxylic acid [(R)-1-(4-cyano-piperidine-1-carbonyl)-3,3,3-trifluoro-propyl]-amide], for which the IC50 came out at 2.61 nM.

As for `CNC(=O)c1cccc(-c2cnc3[nH]cc(C(=O)N[C@H](C)C(=O)N4CC(C#N)C4)c3n2)c1` [Example I-110, 2-(3-Methylcarbamoyl-phenyl)-5H-pyrrolo[2,3-b]pyrazine-7-carboxylic acid [(R)-2-(3-cyano-azetidin-1-yl)-1-methyl-2-oxo-ethyl]-amide], the IC50 was determined as 1.22 nM.

Regarding `CC(C)[C@@H](NC(=O)c1c[nH]c2ncc(Oc3ccccc3)nc12)C(=O)N1CCCC1` [Example I-18, 2-Phenoxy-5H-pyrrolo[2,3-b]pyrazine-7-carboxylic acid [(R)-2-methyl-1-(pyrrolidine-1-carbonyl)-propyl]-amide], the IC50 came to 443 nM.
